This note sets out measurements from patent US20110262425A1, “THERAPEUTIC AGENT FOR MLL LEUKEMIA AND MOZ LEUKEMIA OF WHICH MOLECULAR TARGET IS M-CSF RECEPTOR, AND USE THEREOF” (NATIONAL CANCER CENTER, priority 2007, published 2011).

“Also recorded” adds a separate entry of the source. Structures can show the parent of a compound that is named as a salt.

Assay type in all cases: in vivo
Test [1] deals with M-CSFR-expressing cells. The experiment in a line: Ablation of M-CSFR-expressing cells by AP20187 in MOZ-TIF2-induced AML mice (FKBP-Fas suicide gene transgenic BM cells, secondary transplantation). Conditions: then 1 mg/kg every three days. The protocol:
FIG. 1 depicts the result of M-CSFR expression in bone marrow cells of MOZ leukemogenesis mice. (A) BM cells from MOZ-TIF2-induced AML mice were analyzed by FACS for expression of GFP and M-CSFR. (B) M-CSFR^high cells and M-CSFR^low/- cells were sorted by flow cytometer. MOZ-TIF2 expression in these cells was investigated by immunoblot analysis using an anti-MOZ antibody. (C, D) Indicated numbers of M-CSFR^high cells (C) and M-CSFR^low/- cells (D) were transplanted into mice irradiated beforehand with a lethal dose of radiation and survival from leukemia onset was investigated. (E) Structure of genes for the M-CSFR promoter, EGFP, the NGFR-FKBP-Fas suicide construct, and activation mechanism of NGFR-FKBP-Fas. In transgenic (Tg) mice, conditional ablation of cells highly expressing M-CSFR can be induced by exposure to an AP20187 dimerizer. (F-I) AML mice were induced by transplantation of BM cells from Tg mice infected with MOZ-TIF2, and 10^5 BM cells from AML Tg mice were secondary transplanted into wild-type mice lethally-irradiated beforehand. The secondary-transplanted mice were exposed to AP20187 seven days after transplantation. Expression of GFP and M-CSFR in BM cells (F, G) and the size of spleens (H) of normal Tg mice (F), and of untreated and AP20187-treated secondary-transplanted mice (G) were analyzed four weeks after transplantation. Leukemia-free survival rate of the untreated and AP20187-treated secondary-transplanted mice were investigated (I).
In the transgenic mice, expression levels of endogenous M-CSFR were proportional to those of EGFP and FKBP-Fas (FIG. 1F), and conditional ablation of M-CSFR-expressing cells can be induced by injection of the AP20187 dimerizer (Burnett, S. H. et al., J Leukoc Biol (2004) 75: 612-23). c-KIT^+ BM cells of the transgenic mice were infected with the MOZ-TIF2 retrovirus, and transplanted into lethally-irradiated wild-type mice. These mice developed AML about two months after transplantation, and their BM cells (10^5 cells/mouse) were transplanted into secondary recipient mice. […]

The test system of test [2] is MOZ-TIF2-induced AML. The experiment in a line: Effect of Imatinib on MOZ-TIF2-induced AML in mice. Conditions: Imatinib 100 mg/kg orally twice a day. From the text: (§1) FIG. 10 (A-D) BM cells (10^5 cells) from AML mice with MOZ-TIF2 (A), MLL-AF10 (B), or N-MYC (C) were transplanted into irradiated mice. […] (A-C) show the results of analyzing leukemia-free survival of the mice. (D) depicts the photograph showing the result of analyzing spleen sizes of the MOZ-TIF2-introduced mice three weeks after transplantation.

Test [3] relates to MLL-AF10-induced AML. Description: Effect of Imatinib on MLL-AF10-induced AML in mice. The conditions noted are these: Imatinib 100 mg/kg orally twice a day.
Excerpt: as §1

The test system of test [4] is N-MYC-induced AML. Description: Effect of Imatinib on N-MYC-induced AML in mice. The conditions noted are these: Imatinib 100 mg/kg orally twice a day.
Excerpt: as §1

Take `CC[C@H](C(=O)N1CCCC[C@H]1C(=O)O[C@H](CCc1ccc(OC)c(OC)c1)c1cccc(OCC(=O)NCC(CNC(=O)COc2cccc([C@@H](CCc3ccc(OC)c(OC)c3)OC(=O)[C@@H]3CCCCN3C(=O)[C@@H](CC)c3cc(OC)c(OC)c(OC)c3)c2)CN(C)C)c1)c1cc(OC)c(OC)c(OC)c1` [AP20187]: the “development of AML (leukemia-free survival)” value in test [1] (AP20187 10 mg/kg i.v. daily for 5 days, 5-6 weeks after transplantation) is reported as “suppressed; also recorded: none of the AP20187-treated mice, developed AML”. Further, the “M-CSFR^high cells in BM” value in test [1] (AP20187 10 mg/kg intravenously daily for 5 days, from seven days after transplantation, three weeks after transplantation) was “neither M-CSFR^high cells nor splenomegaly were detected”. In addition, in test [1] (AP20187 10 mg/kg intravenously daily for 5 days, three weeks after transplantation), the splenomegaly entry is on record as “suppressed; also recorded: neither M-CSFR^high cells nor splenomegaly were detected”.

`Cc1ccc(NC(=O)c2ccc(CN3CCN(C)CC3)cc2)cc1Nc1nccc(-c2cccnc2)n1` [Imatinib, Imatinib mesylate]: the MOZ-TIF2-induced splenomegaly result in test [2] (three weeks after transplantation) is “inhibited”. Also, the “onset of AML (leukemia-free survival)” value in test [2] (MOZ-TIF2) and in test [3] was “slowed onsets of AML; also recorded: delaying the leukemia onset” in each case. In addition, the “progress of AML (leukemia-free survival)” value in test [4] is recorded as “did not affect the progress”.
